Columns and labels:
Type in all cases: cell-based
[1] = tested on: S. aureus (ATCC29213); assay: 50% growth inhibitory concentration (IC50) determination assay, S. aureus; conditions: Staphylococcus aureus, growth inhibition, Iso-Sensitest broth, OD 600 nm over 16 h, <0.098 μM = detection limit
Experimental: (§1) The in vitro antimicrobial activity of the compounds against S. aureus (ATCC29213), K. pneumoniae (ATCC10031), and A. baumannii (ATCC17978), was determined according to the following procedure: The assay used a 10-points Iso-Sensitest broth medium to measure quantitatively the in vitro activity of the compounds against S. aureus ATCC29213, K. pneumoniae ATCC 10031, and A. baumannii ATCC17978. Stock compounds in DMSO were serially two-fold diluted (range from 50 to 0.097 μM final concentration) in 384 wells microtiter plates and inoculated with 49 μL the bacterial suspension in Iso-Sensitest broth medium to have a final cell concentration of ˜5×10^5 CFU/mL in a final volume/well of 50 μL/well. Microtiter plates were incubated at 35±2° C. Bacterial cell growth was determined with the measurement of optical density at k=600 nm each 20 minutes over a time course of 16 h. Growth inhibition was calculated during the logarithmic growth of the bacterial cells with determination of the concentration inhibiting 50% (IC50) of the growth.

[2] = tested on: K. pneumoniae (ATCC10031); assay: 50% growth inhibitory concentration (IC50) determination assay, K. pneumoniae; conditions: Klebsiella pneumoniae, growth inhibition, Iso-Sensitest broth, OD 600 nm over 16 h, <0.098 μM = detection limit
Experimental: as §1

[3] = tested on: A. baumannii (ATCC17978); assay: 50% growth inhibitory concentration (IC50) determination assay, A. baumannii; conditions: Acinetobacter baumannii, growth inhibition, Iso-Sensitest broth, OD 600 nm over 16 h, <0.098 = detection limit
Experimental: as §1

Row | IC50 [1] | IC50 [2] | IC50 [3] | Compound
1 | < 0.098 µM | < 0.098 µM | 0.0973 µM | CNc1cc(F)c(Cl)c2c1[nH]c1ncc(-c3cnc4c(c3)c(=O)c(C(=O)O)cn4C)c(N3CC[C@]4(C[C@@H]4N)C3)c12 [Example 4.02, 6-[4-[(2S,3S)-2-amino-5-azaspiro[2.4]heptan-5-yl]-5-chloro-6-fluoro-8-(methylamino)-9H-pyrido[2,3-b]indol-3-yl]-1-methyl-4-oxo-1,8-naphthyridine-3-carboxylic acid]
2 | < 0.098 µM | < 0.098 µM | 0.261 µM | CNc1cc(F)c(F)c2c1[nH]c1ncc(-c3cnc4c(c3)c(=O)c(C(=O)O)cn4C)c(N3CCC4(C[C@H]4N)C3)c12 (mixture of isomers) [Example 2.02, Cis-6-[4-(2-amino-5-azaspiro[2.4]heptan-5-yl)-5,6-difluoro-8-(methylamino)-9H-pyrido[2,3-b]indol-3-yl]-1-methyl-4-oxo-1,8-naphthyridine-3-carboxylic acid]
3 | 0.944 µM | < 0.098 µM | 1.49 µM | CCn1cc(C(=O)O)c(=O)c2cc(-c3cnc4[nH]c5c(NC)cc(F)c(F)c5c4c3N3CCC(N)C3)cnc21 (centres unmarked) [Example 1.03, 6-[4-(3-Aminopyrrolidin-1-yl)-5,6-difluoro-8-(methylamino)-9H-pyrido[2,3-b]indol-3-yl]-1-ethyl-4-oxo-1,8-naphthyridine-3-carboxylic acid]
4 | 1.67 µM | 0.429 µM | 4.79 µM | CNc1cc(F)c(F)c2c1[nH]c1ncc(-c3cnc4c(c3)c(=O)c(C(=O)O)cn4C)c(N3CC[C@H]4CN(CCCN)C[C@H]43)c12 (relative stereo) [Example 1.07, cis-6-[5,6-Difluoro-8-(methylamino)-4-[5-(3-aminopropyl)-2,3,3a,4,6,6a-hexahydropyrrolo[2,3-c]pyrrol-1-yl]-9H-pyrido[2,3-b]indol-3-yl]-1-methyl-4-oxo-1,8-naphthyridine-3-carboxylic acid]
5 | < 0.098 µM | < 0.098 µM | – | CNc1cc(F)c(F)c2c1[nH]c1ncc(-c3cnc4c(c3)c(=O)c(C(=O)O)cn4C)c(N3CCC(F)(CN)C3)c12 (centres unmarked) [Example 1.16, 6-[4-[3-(Aminomethyl)-3-fluoro-pyrrolidin-1-yl]-5,6-difluoro-8-(methylamino)-9H-pyrido[2,3-b]indol-3-yl]-1-methyl-4-oxo-1,8-naphthyridine-3-carboxylic acid]
6 | < 0.098 µM | < 0.098 µM | 0.477 µM | CNc1cc(F)c(C#N)c2c1[nH]c1ncc(-c3cnc4c(c3)c(=O)c(C(=O)O)cn4C)c(N3CC[C@@]4(C[C@@H]4N)C3)c12 [Example 5.01, 6-[4-[(2S,3R)-2-Amino-5-azaspiro[2.4]heptan-5-yl]-5-cyano-6-fluoro-8-(methylamino)-9H-pyrido[2,3-b]indol-3-yl]-1-methyl-4-oxo-1,8-naphthyridine-3-carboxylic acid]
7 | < 0.098 µM | < 0.098 µM | 0.0793 µM | CNc1cc(F)c(Cl)c2c1[nH]c1ncc(-c3cnc4c(c3)c(=O)c(C(=O)O)cn4C)c(N3CC[C@]4(C[C@H]4N)C3)c12 [Example 4.04, 6-[4-[(2R,3S)-2-amino-5-azaspiro[2.4]heptan-5-yl]-5-chloro-6-fluoro-8-(methylamino)-9H-pyrido[2,3-b]indol-3-yl]-1-methyl-4-oxo-1,8-naphthyridine-3-carboxylic acid]
8 | < 0.098 µM | < 0.098 µM | 0.417 µM | CNc1cc(F)c(C#N)c2c1[nH]c1ncc(-c3cnc4c(c3)c(=O)c(C(=O)O)cn4C)c(N3CC[C@]4(C[C@H]4N)C3)c12 [Example 5.02, 6-[4-[(2R,3S)-2-amino-5-azaspiro[2.4]heptan-5-yl]-5-cyano-6-fluoro-8-(methylamino)-9H-pyrido[2,3-b]indol-3-yl]-1-methyl-4-oxo-1,8-naphthyridine-3-carboxylic acid]
9 | < 0.098 µM | < 0.098 µM | 0.497 µM | CNc1cc(F)c(C#N)c2c1[nH]c1ncc(-c3cnc4c(c3)c(=O)c(C(=O)O)cn4C)c(N3CC[C@]4(C[C@@H]4N)C3)c12 [Example 5.03, 6-[4-[(2S,3S)-2-amino-5-azaspiro[2.4]heptan-5-yl]-5-cyano-6-fluoro-8-(methylamino)-9H-pyrido[2,3-b]indol-3-yl]-1-methyl-4-oxo-1,8-naphthyridine-3-carboxylic acid]
10 | 0.294 µM | < 0.098 µM | 3.62 µM | CNc1cc(F)c(F)c2c1[nH]c1ncc(-c3cnc4c(c3)c(=O)c(C(=O)O)cn4C)c(N3CCC(CN)C3)c12 (centres unmarked) [Example 1.11, 6-[4-[3-(Aminomethyl)pyrrolidin-1-yl]-5,6-difluoro-8-(methylamino)-9H-pyrido[2,3-b]indol-3-yl]-1-methyl-4-oxo-1,8-naphthyridine-3-carboxylic acid]
11 | 0.532 µM | < 0.098 µM | 2.95 µM | CNc1cc(F)c(F)c2c1[nH]c1ncc(-c3cnc4c(c3)c(=O)c(C(=O)O)cn4C)c(N3CC[C@@H](N)C3)c12 [Example 1.17, 6-[4-[(3R)-3-Aminopyrrolidin-1-yl]-5,6-difluoro-8-(methylamino)-9H-pyrido[2,3-b]indol-3-yl]-1-methyl-4-oxo-1,8-naphthyridine-3-carboxylic acid]
12 | 0.151 µM | 0.128 µM | 2.79 µM | CNc1cc(F)c(C#N)c2c1[nH]c1ncc(-c3cnc4c(c3)c(=O)c(C(=O)O)cn4C)c(N3C[C@H]4CC[C@@H](N)[C@H]4C3)c12 (relative stereo) [Example 1.13, 6-[5-Cyano-6-fluoro-8-(methylamino)-4-[rel-(3aR,4R,6aS)-4-amino-3,3a,4,5,6,6a-hexahydro-1H-cyclopenta[c]pyrrol-2-yl]-9H-pyrido[2,3-b]indol-3-yl]-1-methyl-4-oxo-1,8-naphthyridine-3-carboxylic acid]
13 | 3.89 µM | < 0.098 µM | 2.86 µM | CNc1cc(F)c(F)c2c1[nH]c1ncc(-c3cnc4c(c3)c(=O)c(C(=O)O)cn4C)c(N3CC4(CCC4N)C3)c12 (centres unmarked) [Example 1.02, 6-[4-(7-Amino-2-azaspiro[3.3]heptan-2-yl)-5,6-difluoro-8-(methylamino)-9H-pyrido[2,3-b]indol-3-yl]-1-methyl-4-oxo-1,8-naphthyridine-3-carboxylic acid]
14 | < 0.098 µM | < 0.098 µM | 0.0765 µM | CNc1cc(F)c(Cl)c2c1[nH]c1ncc(-c3cnc4c(c3)c(=O)c(C(=O)O)cn4C)c(N3CC[C@@]4(C[C@H]4N)C3)c12 [Example 4.01, 6-[4-[(2R,3R)-2-Amino-5-azaspiro[2.4]heptan-5-yl]-5-chloro-6-fluoro-8-(methylamino)-9H-pyrido[2,3-b]indol-3-yl]-1-methyl-4-oxo-1,8-naphthyridine-3-carboxylic acid]
15 | 0.342 µM | < 0.098 µM | 2.48 µM | CNc1cc(F)c(F)c2c1[nH]c1ncc(-c3cnc4c(c3)c(=O)c(C(=O)O)cn4C)c(N3CC4CC4(CN)C3)c12 (centres unmarked) [Example 1.06, 6-[4-[1-(Aminomethyl)-3-azabicyclo[3.1.0]hexan-3-yl]-5,6-difluoro-8-(methylamino)-9H-pyrido[2,3-b]indol-3-yl]-1-methyl-4-oxo-1,8-naphthyridine-3-carboxylic acid]
16 | < 0.098 µM | – | – | CNc1cc(F)c(F)c2c1[nH]c1ncc(-c3cnc4c(c3)c(=O)c(C(=O)O)cn4C)c(N3CCC(N)(C(F)(F)F)C3)c12 (centres unmarked) [Example 1.05, 6-(4-(3-Amino-3-(trifluoromethyl)pyrrolidin-1-yl)-5,6-difluoro-8-(methylamino)-9H-pyrido[2,3-b]indol-3-yl)-1-methyl-4-oxo-1,4-dihydro-1,8-naphthyridine-3-carboxylic acid]
17 | < 0.098 µM | – | – | CNc1cc(F)c(F)c2c1[nH]c1ncc(-c3cnc4c(c3)c(=O)c(C(=O)O)cn4C)c(N3CCC[C@@]4(C[C@H]4N)C3)c12 [Example 6.01, 6-[4-[(2R,3R)-2-Amino-5-azaspiro[2.5]octan-5-yl]-5,6-difluoro-8-(methylamino)-9H-pyrido[2,3-b]indol-3-yl]-1-methyl-4-oxo-1,8-naphthyridine-3-carboxylic acid]
18 | 0.572 µM | 0.11 µM | 1.33 µM | CCn1cc(C(=O)O)c(=O)c2cc(-c3cnc4[nH]c5c(NC)cc(F)c(F)c5c4c3N3CCC(CN)C3)cnc21 (centres unmarked) [Example 1.04, 6-(4-(3-(Aminomethyl)pyrrolidin-1-yl)-5,6-difluoro-8-(methylamino)-9H-pyrido[2,3-b]indol-3-yl)-1-ethyl-4-oxo-1,4-dihydro-1,8-naphthyridine-3-carboxylic acid]
19 | < 0.098 µM | – | – | CNc1cc(F)c(F)c2c1[nH]c1ncc(-c3cnc4c(c3)c(=O)c(C(=O)O)cn4C)c(N3CCC[C@]4(C[C@@H]4N)C3)c12 [Example 6.02, 6-[4-[(2S,3S)-2-amino-5-azaspiro[2.5]octan-5-yl]-5,6-difluoro-8-(methylamino)-9H-pyrido[2,3-b]indol-3-yl]-1-methyl-4-oxo-1,8-naphthyridine-3-carboxylic acid]

Reference: patent US20210323981A1, “FREE AMINO COMPOUNDS FOR THE TREATMENT AND PROPHYLAXIS OF BACTERIAL INFECTION” (Hoffmann-La Roche Inc., priority 2018, published 2021)
